Experimental data taken from patent publication US8187821B2, “Compositions and methods for the modulation of PGRMC1” (University of Utah Research Foundation, priority 2008, dated 2012).

How the values were obtained:
[1] = system: dap1Δ S. cerevisiae; assay: Amphotericin B sensitivity of dap1Δ yeast; assay type: cell-based; settings: 37° C; data not shown
Procedure: PGRMC1 and its homologues have been implicated to be involved in a number of distinct biological processes. […] Additionally, dap1Δ S. cerevisiae appears to be resistant to the polyene antibiotic amphotericin B at 37° C. (data not shown). Amphotericin B functions in a similar manner as nystatin in binding to and depleting membrane ergosterol thereby killing the cell.

[2] = biological target: T1, His10-PGRMC1 (Homo sapiens, UniProt O00264); assay: Competition of cold competitors with [^3H] progesterone or [^3H] cholesterol for His10-PGRMC1 binding; settings: for effect of cold competitor on binding of [^3H] cholesterol: competitor at ten-fold higher concentration; for effect of cold competitor on specific [^3H] progesterone binding: competitor in ten-fold excess
T1 construct: a product containing the full length coding region of PGMRC1 flanked by Nde1 and BamHI restriction sites; made in house; host or cells: E. coli BL21 (DE3) / BL21 codon plus (RIPL); purified bacterial membranes
T1 sequence (O00264 whole entry): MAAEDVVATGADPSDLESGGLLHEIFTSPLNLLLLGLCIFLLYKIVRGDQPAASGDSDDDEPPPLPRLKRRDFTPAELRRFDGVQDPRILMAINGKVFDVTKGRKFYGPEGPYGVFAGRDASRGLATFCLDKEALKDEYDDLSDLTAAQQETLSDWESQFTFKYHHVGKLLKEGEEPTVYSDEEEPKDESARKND
Procedure: The standard 10 μL binding reaction contained 10 μp purified membranes (total protein) and 10 μM [^3H] progesterone or [^3H] cholesterol (3,000-5,000 cpm) in buffer A: 20% ethanol. Stock solutions (100 μM) of [^3H] cholesterol and [^3H] progesterone containing ˜4×10^4 cpm/μL, were prepared in 95% ethanol. Reactions were prepared in clear 2.0 mL microcentrifuge tubes on ice. To start the reaction, the microfuge tube was briefly mixed (vortex) and placed at 37° C. Following a 10 to 30 min incubation, the tubes were centrifuged in a microfuge (˜13,000 rpm) for 2 min. The supernatant was carefully removed and the pellet was washed with an additional 10 μL water. After a second round of centrifugation (2 min; 13,000 rpm), the resulting supernatant was combined with the first and the pellet was resuspended in 20 μL H2O, Scintillation fluid (700 μL Wallac Optiflour) was added to each fraction and the fractions were mixed extensively. The fractions were then counted in a multi-well scintillation counter (Wallac Microbeta Triluxmax, Waltham, Mass.) for 30 seconds each. Binding are reported as μ/moles of ligand bound per mg of membrane protein. His10-PGRMC1 (His10 disclosed as SEQ ID NO: 14)-specific binding is reported as the difference in binding between transformed and untransformed bacteria. Experimental deviations from the standard assay conditions are noted in individual figure legends.
To test whether progesterone and cholesterol compete for the same specific binding site, the direct binding of [^3H] progesterone or [^3H] cholesterol to His10-PGRMC1 (His10 disclosed as SEQ ID NO: 14) in the presence of various cold competitors was examined. In these experiments, the standard amount of [^3H] ligand was combined with a cold competitor at either 10 or 100-fold higher concentration and mixed well to ensure homogeneity. These stock ligand solutions were then used in the standard binding assay as described.
The ability of other putative ligands reported in the literature to compete with progesterone binding was examined. […] As a control, cold progesterone (P) was used as a competitor and it was observed that excess cold progesterone competes with [^3H] progesterone for His10-PGRMC1 (His10 disclosed as SEQ ID NO: 14) binding. Contrastingly, binding of [^3H] cholesterol to His10-PGRMC1 (His10 disclosed as SEQ ID NO: 14) was unaffected by the presence of progesterone, ergosterol, or heme at ten-fold higher concentrations (FIG. 9, cholesterol). It was not until competitor concentrations were 100-fold higher than ligand that a reduction of cholesterol binding was observed.

C[C@@H]1[C@H](O)[C@@H](C)/C=C/C=C/C=C/C=C/C=C/C=C/C=C/[C@H](O[C@@H]2O[C@H](C)[C@@H](O)[C@H](N)[C@@H]2O)C[C@@H]2O[C@](O)(C[C@@H](O)C[C@@H](O)[C@H](O)CC[C@@H](O)C[C@@H](O)CC(=O)O[C@H]1C)C[C@H](O)[C@H]2C(=O)O [amphotericin B]
sensitivity of dap1Δ strain to the antibiotic [1]: resistant

CC(C)[C@@H](C)/C=C/[C@@H](C)[C@H]1CC[C@H]2C3=CC=C4C[C@@H](O)CC[C@]4(C)[C@H]3CC[C@]12C [ergosterol]
effect of cold competitor on binding of [^3H] cholesterol [2]: unaffected | effect of cold competitor on specific [^3H] progesterone binding [2]: reduced

C=CC1=C(C)c2cc3[n-]c(cc4[n-]c(cc5nc(cc1n2)C(C)=C5C=C)c(C)c4CCC(=O)O)c(CCC(=O)O)c3C.[Fe+2] [heme]
effect of cold competitor on binding of [^3H] cholesterol [2]: unaffected | effect of cold competitor on specific [^3H] progesterone binding [2]: reduced
